Source: patent US11117915B2, “Antibacterial aminoglycoside analogs” (Cipla USA, Inc., priority 2007, dated 2021)
≈ marks a conversion by molar mass, not a printed value. Read-outs that look alike come from different tables or passages of the source.

Key:
E. coli ATCC 25922 = experiment: MIC assay, CLSI broth microdilution, E. coli ATCC 25922 (AECO001); type: cell-based; settings: for MIC: Escherichia coli, read-out: MIC AECO001
Protocol: (§1) Minimum inhibitory concentrations (MIC) were determined by reference Clinical and Laboratory Standards Institute (CLSI) broth microdilution methods per M7-A7 [2006]. Quality control ranges utilizing E. coli ATCC 25922, P. aeruginosa ATCC 27853 and S. aureus ATCC 29213, and interpretive criteria for comparator agents were as published in CLSI M100-S17 [2007]. Briefly, serial two-fold dilutions of the test compounds were prepared at 2× concentration in Mueller Hinton Broth. The compound dilutions were mixed in 96-well assay plates in a 1:1 ratio with bacterial inoculum. The inoculum was prepared by suspension of a colony from an agar plate that was prepared the previous day. Bacteria were suspended in sterile saline and added to each assay plate to obtain a final concentration of 5×10^5 CFU/mL. The plates were incubated at 35° C. for 20 hours in ambient air.
These MIC assays were conducted following the same protocol as set forth in Example 110. As shown, substituted sisomicin derivatives with groups other than methyl at the 6′-position have improved activity against strains expressing the AAC6′-modifying enzymes.

P. aeruginosa ATCC 27853 = experiment: MIC assay, CLSI broth microdilution, P. aeruginosa ATCC 27853 (APAE001); type: cell-based; settings: Pseudomonas aeruginosa, read-out: MIC APAE001
Protocol: as §1

| SMILES | MIC (E. coli ATCC 25922; ATCC25922, 20 h) | MIC (P. aeruginosa ATCC 27853; ATCC27853, 20 h) | MIC (E. coli ATCC 25922; AECO001 is ATCC25922, 35° C., 20 hours) | MIC AECO001 (E. coli ATCC 25922; Table 3, E. coli ATCC25922) | MIC (P. aeruginosa ATCC 27853; APAE001 is ATCC27853, 35° C., 20 hours) |
| --- | --- | --- | --- | --- | --- |
| CN[C@@H]1[C@@H](O)[C@@H](O[C@@H]2[C@@H](O)[C@H](O[C@H]3OC(CNCC4(N)CCC4)=CC[C@H]3N)[C@@H](N)C[C@H]2NC(=O)[C@@H](O)CN)OC[C@]1(C)O [Example 56, 6′-(Methyl-1-amino-cyclobutyl)-1-(3-amino-2(S)-hydroxy-propionyl)-sisomicin] | < 1 µg/mL | > 16 µg/mL | – | – | – |
| CN[C@@H]1[C@@H](O)[C@@H](O[C@@H]2[C@@H](O)[C@H](O[C@H]3OC(CNC[C@H]4C[C@H](N)C4)=CC[C@H]3N)[C@@H](N)C[C@H]2NC(=O)[C@@H](O)CN)OC[C@]1(C)O [Example 59, 6′-(Methyl-trans-3-amino-cyclobutyl)-1-(3-amino-2(S)-hydroxy-propionyl)-sisomicin] | < 1 µg/mL | 1 to 16 µg/mL (≈ 1.62 to 25.9 µM) | – | – | – |
| CN[C@@H]1[C@@H](O)[C@@H](O[C@@H]2[C@@H](O)[C@H](O[C@H]3OC(CNC[C@H]4C[C@H](N)C4)=CC[C@H]3N)[C@@H](N)C[C@H]2NC(=O)C2(O)CC(N)C2)OC[C@]1(C)O (stereo partly drawn) [Example 60] | < 1 µg/mL | 1 to 16 µg/mL (≈ 1.55 to 24.9 µM) | – | – | – |
| CNCC1=CC[C@@H](N)[C@@H](O[C@H]2[C@H](O)[C@@H](O[C@H]3OC[C@](C)(O)[C@H](NC)[C@H]3O)[C@H](NC(=O)C3(O)CNC3)C[C@@H]2N)O1 [Example 61] | – | – | < 1 µg/mL | 1 µg/mL (≈ 1.78 µM) | 1 to 16 µg/mL (≈ 1.78 to 28.5 µM) |
| CN[C@@H]1[C@@H](O)[C@@H](O[C@@H]2[C@@H](O)[C@H](O[C@H]3OC(CNCCO)=CC[C@H]3N)[C@@H](N)C[C@H]2NC(=O)C2(O)CC(N)C2)OC[C@]1(C)O (stereo partly drawn) [Example 62] | < 1 µg/mL | 1 to 16 µg/mL (≈ 1.65 to 26.5 µM) | – | – | – |
| CN[C@@H]1[C@@H](O)[C@@H](O[C@@H]2[C@@H](O)[C@H](O[C@H]3OC(CNC[C@H]4C[C@H](N)C4)=CC[C@H]3N)[C@@H](N)C[C@H]2NC(=O)C2(O)CNC2)OC[C@]1(C)O [Example 63] | < 1 µg/mL | 1 to 16 µg/mL (≈ 1.59 to 25.4 µM) | – | – | – |
| CN[C@@H]1[C@@H](O)[C@@H](O[C@@H]2[C@@H](O)[C@H](O[C@H]3OC(CNC[C@@H]4C[C@H](N)CN4)=CC[C@H]3N)[C@@H](N)C[C@H]2NC(=O)[C@@H](O)CN)OC[C@]1(C)O [Example 65, 6′-(Methyl-4(S)-amino-pyrrolidin-2(S)-yl)-1-(3-amino-2(S)-hydroxy-propionyl)-sisomicin] | 1 to 16 µg/mL (≈ 1.58 to 25.3 µM) | 1 to 16 µg/mL (≈ 1.58 to 25.3 µM) | – | – | – |
| CN[C@@H]1[C@@H](O)[C@@H](O[C@@H]2[C@@H](O)[C@H](O[C@H]3OC(CNCC4(CN)CC4)=CC[C@H]3N)[C@@H](N)C[C@H]2NC(=O)[C@@H](O)CN)OC[C@]1(C)O [Example 66, 6′-(Methyl-1-aminomethyl-cyclopropyl)-1-(3-amino-2(S)-hydroxy-propionyl)-sisomicin] | < 1 µg/mL | 1 to 16 µg/mL (≈ 1.62 to 25.9 µM) | – | – | – |
| CN[C@@H]1[C@@H](O)[C@@H](O[C@@H]2[C@@H](O)[C@H](O[C@H]3OC(CNCC4(N)CC4)=CC[C@H]3N)[C@@H](N)C[C@H]2NC(=O)[C@@H](O)CN)OC[C@]1(C)O [Example 67, 6′-(Methyl-1-Amino-cyclopropyl)-1-(3-amino-2(S)-hydroxy-propionyl)-sisomicin] | 1 to 16 µg/mL (≈ 1.66 to 26.5 µM) | 1 to 16 µg/mL (≈ 1.66 to 26.5 µM) | – | – | – |
| CN[C@@H]1[C@@H](O)[C@@H](O[C@@H]2[C@@H](O)[C@H](O[C@H]3OC(CNCC(O)CCN)=CC[C@H]3N)[C@@H](N)C[C@H]2NC(=O)[C@@H](O)CN)OC[C@]1(C)O (stereo partly drawn) [Example 68, 6′-(2-Hydroxy-4-amino-butyl)-1-(3-amino-2(S)-hydroxy-propionyl)-sisomicin] | 1 to 16 µg/mL (≈ 1.61 to 25.7 µM) | 1 to 16 µg/mL (≈ 1.61 to 25.7 µM) | – | – | – |
| CN[C@@H]1[C@@H](O)[C@@H](O[C@@H]2[C@@H](O)[C@H](O[C@H]3OC(CNC[C@H]4C[C@@H](N)[C@@H](O)C4)=CC[C@H]3N)[C@@H](N)C[C@H]2NC(=O)[C@@H](O)CN)OC[C@]1(C)O [Example 69, 6′-(Methyl-1(R)-amino-2(S)-hydroxy-cyclopent-4(S)-yl)-1-(3-amino-2(S)-hydroxy-propionyl)-sisomicin] | < 1 µg/mL | 1 to 16 µg/mL (≈ 1.54 to 24.7 µM) | – | – | – |
| CN[C@@H]1[C@@H](O)[C@@H](O[C@@H]2[C@@H](O)[C@H](O[C@H]3OC(CNCCC4(O)CNC4)=CC[C@H]3N)[C@@H](N)C[C@H]2NC(=O)[C@@H](O)CN)OC[C@]1(C)O [Example 70, 6′-(Ethyl-2-(3-hydroxy-azetidin-3-yl))-1-(3-amino-2(S)-hydroxy-propionyl)-sisomicin] | 1 to 16 µg/mL (≈ 1.58 to 25.2 µM) | > 16 µg/mL | – | – | – |
| CN[C@@H]1[C@@H](O)[C@@H](O[C@@H]2[C@@H](O)[C@H](O[C@H]3OC(CNCC4CC4)=CC[C@H]3N)[C@@H](N)C[C@H]2NC(=O)C(O)C2CNC2)OC[C@]1(C)O (stereo partly drawn) [Example 71, 6′-Methylcyclopropyl-1-(2-(azetidin-3-yl)-2-hydroxy-acetyl)-sisomicin] | 1 to 16 µg/mL (≈ 1.63 to 26 µM) | > 16 µg/mL | – | – | – |
| CN[C@@H]1[C@@H](O)[C@@H](O[C@@H]2[C@@H](O)[C@H](O[C@H]3OC(CNC[C@H]4C[C@H](N)C4)=CC[C@H]3N)[C@@H](N)C[C@H]2NC(=O)C(O)C2CNC2)OC[C@]1(C)O (stereo partly drawn) [Example 72, 6′-(Methyl-trans-3-amino-cyclobutyl)-1-(2-(azetidin-3-yl)-2-hydroxy-acetyl)-sisomicin] | 1 to 16 µg/mL (≈ 1.55 to 24.9 µM) | 1 to 16 µg/mL (≈ 1.55 to 24.9 µM) | – | – | – |
| CN[C@@H]1[C@@H](O)[C@@H](O[C@@H]2[C@@H](O)[C@H](O[C@H]3OC(CNCC4CNC4)=CC[C@H]3N)[C@@H](N)C[C@H]2NC(=O)[C@@H](O)CN)OC[C@]1(C)O [Example 73, 6′-(Methyl-azetidin-3-yl)-1-(3-amino-2(S)-hydroxy-propionyl)-sisomicin] | 1 to 16 µg/mL (≈ 1.66 to 26.5 µM) | 1 to 16 µg/mL (≈ 1.66 to 26.5 µM) | – | – | – |
| CN[C@@H]1[C@@H](O)[C@@H](O[C@@H]2[C@@H](O)[C@H](O[C@H]3OC(CNCC4(CN)CC4)=CC[C@H]3N)[C@@H](N)C[C@H]2NC(=O)C(O)C2CNC2)OC[C@]1(C)O (stereo partly drawn) [Example 74, 6′-(Methyl-1-aminomethyl-cyclopropyl)-1-(2-(azetidin-3-yl)-2-hydroxy-acetyl)-sisomicin] | 1 to 16 µg/mL (≈ 1.55 to 24.9 µM) | > 16 µg/mL | – | – | – |
| CN[C@@H]1[C@@H](O)[C@@H](O[C@@H]2[C@@H](O)[C@H](O[C@H]3OC(CNCCO)=CC[C@H]3N)[C@@H](N)C[C@H]2NC(=O)C(O)C2CNC2)OC[C@]1(C)O (stereo partly drawn) [Example 75, 6′-(2-Hydroxy-ethyl)-1-(2-(azetidin-3-yl)-2-hydroxy-acetyl)-sisomicin] | 1 to 16 µg/mL (≈ 1.65 to 26.5 µM) | > 16 µg/mL | – | – | – |
| CN[C@@H]1[C@@H](O)[C@@H](O[C@@H]2[C@@H](O)[C@H](O[C@H]3OC(CNCCCN)=CC[C@H]3N)[C@@H](N)C[C@H]2NC(=O)C(O)C2CNC2)OC[C@]1(C)O (stereo partly drawn) [Example 76, 6′-(3-Amino-propyl)-1-(2-(azetidin-3-yl)-2-hydroxy-acetyl)-sisomicin] | 1 to 16 µg/mL (≈ 1.62 to 25.9 µM) | 1 to 16 µg/mL (≈ 1.62 to 25.9 µM) | – | – | – |
| CN[C@@H]1[C@@H](O)[C@@H](O[C@@H]2[C@@H](O)[C@H](O[C@H]3OC(CNCC(O)CCN)=CC[C@H]3N)[C@@H](N)C[C@H]2NC(=O)C(O)C2CNC2)OC[C@]1(C)O (stereo partly drawn) [Example 77, 6′-(2-Hydroxy-4-amino-butyl)-1-(2-(azetidin-3-yl)-2-hydroxy-acetyl)-sisomicin] | 1 to 16 µg/mL (≈ 1.54 to 24.7 µM) | 1 to 16 µg/mL (≈ 1.54 to 24.7 µM) | – | – | – |
| CN[C@@H]1[C@@H](O)[C@@H](O[C@@H]2[C@@H](O)[C@H](O[C@H]3OC(CNC[C@H]4C[C@H](N)C4)=CC[C@H]3N)[C@@H](N)C[C@H]2NC(=O)C2(O)CCNC2)OC[C@]1(C)O (stereo partly drawn) [Example 78, 6′-(Methyl-trans-3-amino-cyclobutyl)-1-(3-hydroxy-pyrrolidin-3-yl-acetyl)-sisomicin] | < 1 µg/mL | 1 to 16 µg/mL (≈ 1.55 to 24.9 µM) | – | – | – |
| CN[C@@H]1[C@@H](O)[C@@H](O[C@@H]2[C@@H](O)[C@H](O[C@H]3OC(CNCC4(CN)CC4)=CC[C@H]3N)[C@@H](N)C[C@H]2NC(=O)C2(O)CCNC2)OC[C@]1(C)O (stereo partly drawn) [Example 79] | 1 to 16 µg/mL (≈ 1.55 to 24.9 µM) | > 16 µg/mL | – | – | – |
| CN[C@@H]1[C@@H](O)[C@@H](O[C@@H]2[C@@H](O)[C@H](O[C@H]3OC(CNCCCC(O)CN)=CC[C@H]3N)[C@@H](N)C[C@H]2NC(=O)[C@@H](O)CN)OC[C@]1(C)O (stereo partly drawn) [Example 80, 6′-(4-Hydroxy-5-amino-pentyl)-1-(3-amino-2(S)-hydroxy-propionyl)-sisomicin] | < 1 µg/mL | < 1 µg/mL | – | – | – |
| CN[C@@H]1[C@@H](O)[C@@H](O[C@@H]2[C@@H](O)[C@H](O[C@H]3OC(CNCCNC4CNC4)=CC[C@H]3N)[C@@H](N)C[C@H]2NC(=O)[C@@H](O)CN)OC[C@]1(C)O [Example 81, 6′-(N-(Azetidin-3-yl)-2-amino-ethyl)-1-(3-amino-2(S)-hydroxy-propionyl)-sisomicin] | 1 to 16 µg/mL (≈ 1.58 to 25.3 µM) | > 16 µg/mL | – | – | – |
| CN[C@@H]1[C@@H](O)[C@@H](O[C@@H]2[C@@H](O)[C@H](O[C@H]3OC(CNCC(O)CN)=CC[C@H]3N)[C@@H](N)C[C@H]2NC(=O)C(O)C2CNC2)OC[C@]1(C)O (stereo partly drawn) [Example 82, 6′-(2-Hydroxy-3-amino-propyl)-1-(2-(azetidin-3-yl)-2-hydroxy-acetyl)-sisomicin] | 1 to 16 µg/mL (≈ 1.58 to 25.2 µM) | > 16 µg/mL | – | – | – |
| CN[C@@H]1[C@@H](O)[C@@H](O[C@@H]2[C@@H](O)[C@H](O[C@H]3OC(CNCC4(O)CC(N)C4)=CC[C@H]3N)[C@@H](N)C[C@H]2NC(=O)C(O)C2CNC2)OC[C@]1(C)O (stereo partly drawn) [Example 83, 6′-(Methyl-3-amino-1-hydroxy-cyclobutyl)-1-(2-(azetidin-3-yl)-2-hydroxy-acetyl)-sisomicin] | 1 to 16 µg/mL (≈ 1.52 to 24.3 µM) | > 16 µg/mL | – | – | – |
